According to paper PMC8258866 (Journal of medicinal chemistry, 2020):

Columns and labels:
[1] = test system: tamoxifen-resistant MCF-7:TAM1 cell-derived xenograft; assay: MCF-7:TAM1 xenograft, monotherapy; type: in vivo
MCF7:CFR 3D spheroids = assay: 3D-spheroid growth assay; type: cell-based; settings: 100 nM; cell viability at day 9
MCF-7:CFR cells [2] = assay: 3 h treatment and washout study in MCF-7:CFR cells; type: cell-based; settings: media replaced after 3 h, viability after 5 days
MCF-7:Tam1 tumors = assay: MCF-7:TAM1 xenograft, combination with fulvestrant; type: in vivo, athymic nude mice; settings: 4 weeks
MCF-7:CFR cells [3] = assay: Cell growth assay in fulvestrant-resistant MCF-7:CFR 2D cultures; type: cell-based; settings: MCF-7:CFR growth inhibition
BET family proteins = assay: BROMOscan bromodomain profiling, BET family; type: binding; settings: across BET family proteins
[4] = test system: MCF-7:WS8, MCF-7:5C, MCF-7:TAM1, T47D, T47D/TDG, MCF-7:CPR, MCF-7:CFR cells; assay: Cell growth assay across ER+ breast cancer cell lines; type: cell-based; settings: read-out: IC50 across all cell lines
Kinetic solubility = type: physicochemical; settings: 27 tested as HCl salt; for solubility: PBS, pH 7.4, solubility (PBS, pH 7.4)
Mouse pharmacokinetics = type: in vivo, CD1 mice; settings: iv 5 mg/kg, mice, HCl salt

CC/C(=C(\c1ccccc1)c1ccc(OCCN(C)C)cc1)c1ccccc1 [tamoxifen, reference compound]
effect on tumor growth relative to vehicle control ([1]; 1.5 mg/mouse/day po, day 28): no significant effect on tumor growth

Cc1sc2c(c1C)C(c1ccc(Cl)cc1)=N[C@@H](CC(=O)OC(C)(C)C)c1nnc(C)n1-2 [Compound 1, reference compound]
effect on MCF-7:CFR 3D spheroid growth/viability (MCF7:CFR 3D spheroids): significantly inhibited growth
efficacy after drug washout (MCF-7:CFR cells [2]): no significant efficacy at <300 nM

CC/C(=C(\c1ccc(O)cc1)c1ccc(OCCN(C)C)cc1)c1ccccc1 [4-hydroxytamoxifen]
effect on MCF-7:CFR 3D spheroid growth/viability (MCF7:CFR 3D spheroids): Neither 4-hydroxytamoxifen (4OHT) nor fulvestrant inhibited MCF-7:CFR cell growth

CCNC(=O)C[C@@H]1N=C(c2ccc(Cl)cc2)c2cc(OC)ccc2-n2c(C)nnc21 [Compound 2, reference compound]
tumor growth inhibition versus vehicle control (MCF-7:Tam1 tumors; 50 mg/kg po in combination with fulvestrant sc 1 (mg/mouse)/week): comparable and significant tumor growth inhibition

CCS(=O)(=O)Nc1cc(-c2cn(C)c3c(=O)[nH]ccc23)cc2c1ccn2C(C)(c1ccccn1)c1ccccn1 [Compound 27, N-(1-(1,1-Di(pyridin-2-yl)ethyl)-6-(1-methyl-7-oxo-6,7-dihydro-1H-pyrrolo[2,3-c]pyridin-3-yl)-1H-indol-4-yl)-ethanesulfonamide]
cellular potency over JQ1 (MCF-7:CFR cells [3]): > 100 fold
Kd (BET family proteins): < 1 nM
effect on MCF-7:CFR 3D spheroid growth/viability (MCF7:CFR 3D spheroids): complete loss of spheroid viability
IC50 [4]: < 10 nM
efficacy after drug washout (MCF-7:CFR cells [2]): only slightly diminished
solubility (PBS, pH 7.4) (Kinetic solubility): 73.43 μM
solubility (Kinetic solubility): 73.4 µM
Cl (Mouse pharmacokinetics): 25.5 (mL/min)/kg
effect on animal body weight ([1]; 50 (mg/kg)/day po, 4 weeks): without any effect on animal body weight
overt signs of toxicity ([1]; once daily administration for 4 weeks): no overt signs of toxicity
tumor growth inhibition versus vehicle control (MCF-7:Tam1 tumors; 30 mg/kg po in combination with fulvestrant sc 1 (mg/mouse)/week): comparable and significant tumor growth inhibition

CC(=O)[C@H]1CC[C@H]2[C@@H]3CCC4=CC(=O)CC[C@]4(C)[C@H]3CC[C@]12C [progesterone, reference compound]
solubility (Kinetic solubility): 22.4 µM

C[C@]12CC[C@@H]3c4ccc(O)cc4C[C@@H](CCCCCCCCC[S+]([O-])CCCC(F)(F)C(F)(F)F)[C@H]3[C@@H]1CC[C@@H]2O (stereo partly shown) [fulvestrant]
effect on MCF-7:CFR 3D spheroid growth/viability (MCF7:CFR 3D spheroids): Neither 4-hydroxytamoxifen (4OHT) nor fulvestrant inhibited MCF-7:CFR cell growth

COc1nnc2ccc(N3CCC(c4ccc(OCCN5CCN(C)C(=O)[C@H]5C)cc4)CC3)nn12 [Compound 5, (3R)-4-[2-[4-[1-(3-Methoxy-[1,2,4]-triazolo[4,3-b]pyridazin-6-yl)-4-piperidyl]phenoxy]ethyl]-1,3-dimethyl-piperazin-2-one]
effect on MCF-7:CFR 3D spheroid growth/viability (MCF7:CFR 3D spheroids): significantly inhibited growth
